Source: PubChem BioAssay (NCI)
“And” between values parts separate entries of the source, which are not always exact repeats. Identical values can stand only once.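 Dose response: 5 concentrations. Exposure: 48 h. Format: 96-well plates. Endpoint: linear interpolation; highest concentration if not reached. GI50 marks 50% less growth. At the TGI there is no net growth.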

Experiments:
Assay in all cases: DTP human tumour cell line panel, 48 h
BT-549 breast = tested on: BT-549 breast
COLO 205 colon = tested on: COLO 205 colon
DU-145 prostate = tested on: DU-145 prostate
HOP-92 NSCLC = tested on: HOP-92 NSCLC
IGROV1 ovarian = tested on: IGROV1 ovarian
MDA-MB-435 = tested on: MDA-MB-435
OVCAR-5 ovarian = tested on: OVCAR-5 ovarian
SK-MEL-5 melanoma = tested on: SK-MEL-5 melanoma
SK-OV-3 ovarian = tested on: SK-OV-3 ovarian
UACC-62 melanoma = tested on: UACC-62 melanoma

| Compound | GI50 (BT-549 breast) [µM] | TGI (BT-549 breast) [µM] | GI50 (COLO 205 colon) | TGI (COLO 205 colon) | GI50 (DU-145 prostate) [µM] | TGI (DU-145 prostate) [µM] | GI50 (HOP-92 NSCLC) | TGI (HOP-92 NSCLC) | GI50 (IGROV1 ovarian) [µM] | TGI (IGROV1 ovarian) [µM] | GI50 (MDA-MB-435) | TGI (MDA-MB-435) [µM] | GI50 (OVCAR-5 ovarian) [µM] | TGI (OVCAR-5 ovarian) [µM] | GI50 (SK-MEL-5 melanoma) | TGI (SK-MEL-5 melanoma) [µM] | GI50 (SK-OV-3 ovarian) | TGI (SK-OV-3 ovarian) | GI50 (UACC-62 melanoma) | TGI (UACC-62 melanoma) |
| --- | --- | --- | --- | --- | --- | --- | --- | --- | --- | --- | --- | --- | --- | --- | --- | --- | --- | --- | --- | --- |
| COc1cc2c3c(n(CCCN=[N+]=[N-])c(=O)c2cc1OC)-c1ccc([N+](=O)[O-])cc1C3=O | 14.4 | 98.8 | > 100 µM | > 100 µM | 34.4 | > 100 | 29.8 µM | > 100 µM | 0.215 | 35 | > 100 µM | > 100 | > 100 | > 100 | > 100 µM | > 100 | > 100 µM | > 100 µM | 68.7 µM | > 100 µM |
| O=C(Nc1ccc(Cl)c(C(F)(F)F)c1)Nc1ccc(-c2cccnc2)cc1N1CCC(CO)CC1 | 2.13 | 6.22 | 1.65 µM | 3.18 µM | 3.74 | > 100 | 2.22 µM | 5.6 µM | 3.48 | > 100 | 1.91 µM | 4.53 | 2.96 | > 100 | 1.63 µM | 3.12 | 2.22 µM | 6.59 µM | 2.18 µM | 6.75 µM |
| Nc1nc(Sc2ccc([N+](=O)[O-])c3nonc23)c2ncn(C3OC(CO)C(O)C3O)c2n1 (stereo not given) | 1.6 | 18.6 | 2.59 µM | 14.4 µM | 0.554 | 27.3 | 0.514 µM | 18.1 µM | 2.58 | 24.2 | 1.67 µM | > 57.1 | 1.07 | 13.1 | 2.4 µM | > 22.4 | 0.651 µM | 14.5 µM | 0.478 µM | 3.59 µM |
| Cc1ccc(-c2cc(C(=O)Nc3ccc(S(=O)(=O)N4CCCCC4)cc3)[nH]n2)c(O)c1 | > 100 | > 100 | > 100 µM | > 100 µM | > 100 | > 100 | > 100 µM | > 100 µM | > 100 | > 100 | > 100 µM | > 100 | > 100 | > 100 | > 100 µM | > 100 | > 100 µM | > 100 µM | > 100 µM | > 100 µM |
| COc1cc(-n2cc(-c3ccc(Cl)cc3)n(-c3ccccc3)c2=O)cc(OC)c1OC | 17.5 | 57.3 | 11.7 µM | 44.2 µM | 43.6 | > 100 | 22.7 µM | > 100 µM | 7.87 | 36.2 | 18.7 µM | > 86.3 | 39.4 | > 100 | 3.99 µM | 17.7 | 30.8 µM | > 90.7 µM | 4.92 µM | 28.2 µM |
| COc1cc(OC)c(C(=O)/C=C/c2ccc(C#N)cc2)c(OC)c1 | 1.3 | 5.11 | 1.82 µM | 7.38 µM | 1.54 | 6.27 | 1.34 µM | 4.96 µM | 1.56 | 7.75 | 1.32 µM | 6.69 | 2.13 | 8.4 | 1.97 µM | 6.95 | 2.05 µM | > 50 µM | 1.45 µM | 5.78 µM |
| Cn1cnc([N+](=O)[O-])c1S(=O)(=O)Oc1ccc(Cl)cc1 | 13.3 | 28.8 | 0.546 µM | 2.09 µM | 4.75 | 17.8 | 1.61 µM | 3.37 µM | 2.14 | 5.58 | 16.2 µM | 36.2 | 15.6 | 39.1 | 15.7 µM | 32.3 | 50.5 µM | > 100 µM | 13.2 µM | 29.1 µM |
| CCOC(=O)Cc1csc(NC(=O)C(OC(=O)c2ccc(Cl)cc2)c2ccccc2)n1 (stereo not given) | 25.9 | 56.9 | 38.3 µM | > 100 µM | 72.7 | > 100 | 27.2 µM | > 100 µM | 47 | > 100 | 28.1 µM | 75.6 | 38.5 | > 100 | 18 µM | 36 | > 100 µM | > 100 µM | 20.3 µM | 46.5 µM |
| COc1cc2c(cc1OC)[C@@H]1C(=O)c3ccc4c(c3O[C@@H]1CO2)C[C@H](C(C)C)O4 | 0.279 | 20.8 | 6.19 µM | 20.8 µM | 14.5 | > 100 | 2.04 µM | 22.3 µM | 14.2 | > 85.5 | 4.06 µM | > 36.7 | 29.1 | > 100 | 0.0375 µM | 12.9 | 14.4 µM | > 81.8 µM | 9.24 µM | > 100 µM |
| O=C1OC2(c3ccc(O)cc3Oc3cc(O)ccc32)c2cccc3cccc1c23 | 21.6 | 62.7 | 17.2 µM | 33.2 µM | 18.9 | 36.9 | 19 µM | 97.6 µM | 19.1 | 57.4 | 19.1 µM | 38 | 17.2 | 40.7 | 14.6 µM | 28 | 34 µM | > 100 µM | 17.3 µM | 42.5 µM |
| Cc1nnn(C)c1-c1cnc2c3ccc(C(C)(C)O)cc3n([C@H](c3ccccc3)C3CCOCC3)c2c1 | 3.61 | 24 | < 0.01 µM | 30.1 µM | 11.2 | > 100 | < 0.01 µM | 22.7 µM | < 0.02 | > 79.3 | < 0.01 µM | > 100 | 0.0907 | > 100 | < 0.01 µM | 10.7 | < 0.01 µM | 16.4 µM | < 0.01 µM | 12.7 µM |
| O=C(COc1ccccc1)NNc1ccccc1 | 90.7 | > 300 | 17.6 µM and 11.9 µM | > 86.6 µM and 197 µM | > 300 | > 300 | 71 µM | 216 µM | > 300 | > 300 | 12.2 µM and 16.1 µM | > 300 | 144 | > 300 | 46.2 µM and 104 µM | > 300 | 254 µM | > 300 µM | 2.71 µM and 5 µM | > 79.5 µM and 91.2 µM |
| CCOc1ccc(-c2nc3ccc(-c4nc5ccc(N6CCN(C)CC6)cc5[nH]4)cc3[nH]2)cc1 | 1.16 | 2.46 | 0.117 µM | 1.26 µM | 0.402 | 1.57 | 0.213 µM and 0.0913 µM | 2.27 µM and 1.52 µM | 0.514 | 2.44 | 0.69 µM | 2.8 | 1.47 | 3.07 | 0.0761 µM | 1.42 | 0.379 µM and 0.478 µM | 1.84 µM and 1.86 µM | 0.511 µM | 1.96 µM |
| COc1ccc(Nc2ncc(I)c(NCCCNC(=O)C3CCC3)n2)cc1 | 2.52 | 7.92 | 3.07 µM | 12.2 µM | 9.21 | > 100 | 3.04 µM | 29.2 µM | 2.39 | 16.6 | 17.1 µM | > 100 | 8.28 | 68.5 | 10.1 µM | 28.7 | 4.81 µM | 25.5 µM | 17.2 µM | 43.2 µM |
| OCc1ccc(-c2nc(-c3ccc4c(c3)OCO4)c(-c3ccccn3)[nH]2)cc1 | > 25 | > 25 | > 25 µM | > 25 µM | > 25 | > 25 | > 12.9 µM | > 25 µM | > 25 | > 25 | > 25 µM | > 25 | > 22.8 | > 25 | > 20 µM | > 25 | > 25 µM | > 25 µM | > 25 µM | > 25 µM |
| CCCN(CCC)c1ccc(/C=N/NC(=O)c2cccnc2)c(C)c1 | 15.2 | 29.3 | 14.5 µM | 27.6 µM | 16.4 | 43.9 | 11.3 µM | 26.2 µM | 16 | 39.7 | 5.67 µM | 20.8 | 13.1 | 33.8 | 12.8 µM | 25.4 | 18.1 µM | 46.9 µM | 11.4 µM | 24.6 µM |
| Oc1ccc(N=Nc2ccc(Br)cc2)c(O)c1 | 2.67 | 8.3 | 17.8 µM | 48.9 µM | 3.43 | 17.9 | 1.1 µM | 6.96 µM | 2.81 | 16.7 | 1.25 µM | 3.65 | 5.75 | 75.5 | 3.85 µM | 21.6 | 3.24 µM | 18.3 µM | 3.01 µM | 20.8 µM |
| CCOC(=O)c1ccc(N2NC(=O)/C(=C/c3ccc([N+](=O)[O-])o3)C2=O)cc1 | 20.1 | 39.7 | 4.06 µM | 9.46 µM | 18 | 32.3 | 15.6 µM | 31.8 µM | 20 | 41.4 | 15.1 µM | 33 | 19 | 40.7 | > 40.4 µM | > 54.9 | > 39.4 µM | > 54.1 µM | 19.9 µM | 43 µM |
| CC(C)(C)c1cc(C[P+](c2ccccc2)(c2ccccc2)c2ccccc2)cc(C(C)(C)C)c1O | 0.33 | 0.898 | 0.199 µM | 0.521 µM | 0.593 | 11.8 | 0.155 µM | 0.555 µM | 0.437 | 7.46 | 0.289 µM | 1.2 | 2.5 | 14.3 | 0.244 µM | 0.716 | 1.44 µM | 6.7 µM | 0.365 µM | 1.66 µM |
| CCc1cc2c(c(OCC(F)(F)F)c(C(=O)NC3CCN(C(=O)CO)CC3)n2C)c(=O)n1CC(=O)c1ccccc1 | 51.3 | > 100 | > 100 µM | > 100 µM | > 100 | > 100 | > 62.4 µM | > 100 µM | > 80.5 | > 100 | > 100 µM | > 100 | > 100 | > 100 | 80.2 µM | > 100 | > 100 µM | > 100 µM | 57.8 µM | > 100 µM |
| COc1cccc(S(=O)(=O)NC2=NCCN2C(=S)SN2CCn3c2nsc3=S)c1 | 29.9 | 99.8 | 17.8 µM | 39.6 µM | 44.2 | > 100 | 44.4 µM | > 100 µM | 27.2 | 78.5 | 37.3 µM | > 100 | 23 | 79.4 | 37.9 µM | > 100 | 20.4 µM | 99.1 µM | 28.6 µM | > 100 µM |
| Nc1nc(-c2cccnc2)cc(-c2cc(-c3cccnc3)nc(N)n2)n1 |  | > 100 |  | > 100 µM |  | > 100 |  | > 100 µM |  | > 100 |  | > 100 |  | > 100 |  | > 100 |  | > 100 µM |  | > 100 µM |
| COc1cccc2c1C(=O)c1c(O)c3c(c(O)c1C2=O)C[C@](O)(C(=O)CO)C[C@H]3O[C@@H]1C[C@@H](NC(=O)CCCN(C)C2(c3ccc(F)cc3)CC3CCC2C3)[C@H](O)[C@@H](C)O1 (stereo not given in full) | 5.07 | 13.7 | 0.712 µM | 1.44 µM | 0.893 | 1.89 | 3.62 µM | 11.1 µM | 5.72 | 15.8 | 0.836 µM | 1.61 | 0.863 | 1.67 | 0.859 µM | 1.57 | 7.59 µM | 16.4 µM | 0.889 µM | 1.92 µM |
